Results reported in patent publication US20250114430A1, “MODIFIED PEPTIDOMIMETICS AND METHODS OF USE” (The University of North Carolina at Chapel Hill, priority 2021, published 2025).
Non-standard residues stand in square brackets, D forms with d. No end group written: not given here.

How the values were obtained:
[1] = target: T1, human neutrophil elastase (Homo sapiens, UniProt P08246); type: in vitro ADME
T1 sequence (P08246 30-267): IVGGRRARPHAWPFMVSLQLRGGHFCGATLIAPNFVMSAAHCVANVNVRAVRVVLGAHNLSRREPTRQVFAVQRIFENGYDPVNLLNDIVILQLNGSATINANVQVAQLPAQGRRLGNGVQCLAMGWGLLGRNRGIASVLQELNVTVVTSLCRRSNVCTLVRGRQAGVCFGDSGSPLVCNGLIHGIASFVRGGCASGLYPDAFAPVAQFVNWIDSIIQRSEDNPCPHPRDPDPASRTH
Method: Peptides were exposed to NE over time, and the reaction was stopped by addition of sivelestat. HPLC was then performed in order to determine peptide stability. N=3-4 replicates per time point.
HEK293T cells were plated and incubated for 2 hours with Fluo-4 plus or minus ELD peptides, with fluorescent images taken every 30 seconds for 2-6 minutes at excitation/emission wavelengths of 488/530 nm. […] Candidate peptides ELD604, 607, 601, and 100 were tested for resistance against protease degradation, wherein the peptides were incubated with neutrophil elastase, treated with the elastase inhibitor sivelestat at various timepoints to halt ongoing reactions, and then analyzed by HPLC (FIG. 9).
Endogenous Orai1/store operated Ca^2+ influx have been extensively studied in HEK293T cells, so this cell type was used to understand ELD607-Orai1 interactions. […] Thapsigargin is a SERCA pump inhibitor that prevents uptake of cytosolic Ca^2+ into the endoplasmic reticulum. Thapsigargin is commonly used to stimulate Orai1/store operated Ca^2+ influx. […] Dynamic light scattering (DLS) was used to evaluate binding of ELD607 to peptides of Orai1 extracellular loops. […] Thus, it was concluded that ELD607 interacts with Orai1.

[2] = tested on: SARS-CoV-2 S1 pseudovirus; type: cell-based
HEK293T cells = assay: Cytoplasmic Ca^2+ (Fluo-4) in HEK293T cells incubated with ELD peptides; type: cell-based; settings: 2 hours with Fluo-4 plus or minus peptide
P. aeruginosa [3] = assay: P. aeruginosa infection in WT mice, ELD607 versus comparators; type: in vivo; settings: WT mice infected with P. aeruginosa
Source text: We then infected WT mice with P. aeruginosa and treated with ELD607, the Orai1 small molecule antagonist […], dexamethasone or scrambled ELD607.

P. aeruginosa [4] = assay: P. aeruginosa growth in the presence of peptide; type: cell-based; settings: in vitro
Orai1 = Orai1 (Homo sapiens, UniProt Q96D31); assay: Dose response of Ca^2+ influx (SOCE), Ca^2+ add back approach, HEK293T cells; type: cell-based; parameters: Endogenous Orai1/store operated Ca^2+ influx have been extensively studied in HEK293T cells; endogenous in cells; host or cells: HEK293T
Method: HEK293T cells were cultured in 384 well plates. Cells were then exposed to vehicle or […] ELD607 for 1 h. 100 nM thapsigargin was then added followed by extracellular Ca^2+ to differentiate ER Ca^2+ release and SOCE. n=8-12 cultures per data point.
ELD607 requires Orai1 expression to inhibit Ca^2+ signaling. […] Using this approach, curves were fitted to the data and the 50% inhibitory concentrations (IC50S) were calculated.

Sequence of Orai1 (Q96D31 whole entry): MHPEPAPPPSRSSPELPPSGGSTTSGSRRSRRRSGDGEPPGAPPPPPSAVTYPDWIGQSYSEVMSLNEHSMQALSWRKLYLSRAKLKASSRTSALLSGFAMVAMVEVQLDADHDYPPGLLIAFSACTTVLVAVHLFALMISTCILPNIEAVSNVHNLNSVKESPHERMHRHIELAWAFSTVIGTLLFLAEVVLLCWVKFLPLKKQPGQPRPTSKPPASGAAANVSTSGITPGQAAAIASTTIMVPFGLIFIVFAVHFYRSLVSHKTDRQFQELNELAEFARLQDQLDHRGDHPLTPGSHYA

| Compound | stability against neutrophil elastase [1] | pseudovirus infection (% DsRed-positive cells) [2] | cytoplasmic calcium levels as compared to a control scrambled peptide (HEK293T cells) | further results |
| --- | --- | --- | --- | --- |
| a-HDIVNMLIH-a ([dA]HDIVNMLIH[dA]) [ELD604] | significantly more stable | inhibited viral replication | reduced cytoplasmic calcium levels |  |
| HDINMLIHG [ELD601, HDINMLIHG] | still degraded by elastase |  |  |  |
| n-VHDIVNMLIHG-n (VHDIVNMLIHG-NH2; not fully specified; also: N-terminal amidation) [ELD621] |  | inhibited viral replication | reduced cytoplasmic calcium levels |  |
| Cc1nnsc1C(=O)Nc1ccc(-n2nc(C(F)(F)F)cc2C(F)(F)F)cc1 [YM-58453, reference compound] |  |  |  | neutrophilia, weight loss, bacterial infections and lung macrophage levels (these parameters) (P. aeruginosa [3]): neither −58453, dexamethasone nor scrambled ELD607 had any significant effects |
| O=C(O)c1cn(C2CC2)c2cc(N3CCNCC3)c(F)cc2c1=O [ciproflaxin, reference compound] |  |  |  | P. aeruginosa growth (P. aeruginosa [4]): fully inhibited bacterial growth |
| DITLVHDIVNMLIHGL [ELD100, DITLVHDIVNMLIHGL] | not neutrophil elastase resistant |  |  | IC50 (Orai1; Ca^2+ influx, HEK293T, 100 nM thapsigargin, read-out: IC50 (Molar)): 37 nM; Bottom (%) (Orai1; fitted curve bottom, text: maximal inhibitions): 57.03% |
